Read-outs that look alike come from different tables or passages of the source.
Assays:
HCT 116 (p21 wt) = experiment: MTS cytotoxicity, HCT 116 (p21 wt); assay type: cell-based; conditions: Homo sapiens, log of EC50 in μM, 48 h, read-out: Log EC50 +/− Standard Error of Log EC50, HCT 116 (p21 wt) (converted)
From the text: (§1) Cytotoxicity in Human Colon Tumor (HCT) Cell Lines. To determine if punaglandins elicit cytotoxicity independently of the tumor-suppressor p53, as do other dienone prostaglandins, several cytotoxicity assays were employed. First, cell death effects of all isolated punaglandins were investigated in pairs of isogenic colon cancer cell lines, the HCT 116^+/+ competent cell line and HCT 116^−/− null cell lines. HCT 116^+/+ cells are homozygous for p53^+/+ and p21^+/+; where as, HCT 116^−/− cells lack both alleles for p53 (p53^−/−) or p21 (p21^−/−).
(§2) Each cell line was seeded simultaneously in 96-well plates and incubated for 24 h before treatment with individual punaglandins at various concentrations for 48 additional h. Cytotoxicity was determined using MTS and absorbances were recorded at 490 nm. Half maximal effective concentrations (EC50) and Log EC50s were calculated from a concentration-response curve generated using GraphPad Prism (Table 1).

RKO = experiment: MTS cytotoxicity, RKO cells; assay type: cell-based; conditions: Homo sapiens, 48 h
Method: (§3) Cytotoxicity in Human Colon Tumor (RKO) Cell Lines. Punaglandins (8) and (10) were also assayed for p53-independent cytotoxicity in RKO and RKO-E6 cells. Each cell line was seeded simultaneously in 96-well plates and incubated for 24 h before treatment with PNG 4 (8) and PNG 6 (10) at various concentrations for 48 h. Cytotoxicity was determined using MTS and absorbances were recorded at 490 nm. Log EC50s and EC50s were calculated from a concentration-response curve generated using GraphPad Prism (Table 2).

p53 = p53 accumulation ratio in RKO-E6 and RKO cells, punaglandin study; assay type: cell-based, human; conditions: 7 μM, 6 h
Method: To determine if punaglandins inhibit p53 degradation by disrupting the proteasome pathway, the accumulation ratio of p53 was determined in RKO and RKO-E6 cells treated with selected punaglandins, PNG 4 (8) and PNG 6 (10). Equally seeded RKO and RKO-E6 cells were treated with vehicle (0.5% DMSO), 50 μM Etoposide, 60 μM PGA2 (3), 7 μM PNG 6 (10), and 7 μM PNG 4 (8). After 6 h incubation with vehicle or drug, cells were lysed and harvester. […] of protein from each lysate was fractionated by SDS-PAGE and probed for p53 protein. The p53 band intensities were then analyzed and quantitated using densitometry. The ratio of p53 in RKO-E6 to RKO cells was calculated by dividing the amount of p53 in RKO-E6 cells by the amount in RKO cells and multiplying by 100 to give percent

HCT 116 (p21^−/−) = experiment: MTS cytotoxicity, HCT 116 (p21−/−); assay type: cell-based; conditions: Homo sapiens, log of EC50 in μM, 48 h, read-out: Log EC50 +/− Standard Error of Log EC50, HCT 116 (p21−/−) (converted)
From the text: as §1, §2

caspase-3 = experiment: Caspase-3 activity in RKO cells (DEVD-AMC); assay type: cell-based, human; conditions: PNG 4 0.5 μM, PNG 6 1 μM, Taxol 1 μM
Method: To determine if selected punaglandins, PNG 4 (8) and PNG 6 (10) also induce apoptosis in RKO cells in a time dependent manner, caspase-3 activity was determined. During apoptosis the caspases, a family of cysteinyl aspartate-specific proteases, are activated. These enzymes cleave specific substrates resulting in biochemical and morphological changes associated with apoptosis. Therefore, detection of activated caspases can be used as a biochemical marker for apoptosis. Caspase-3 has substrate specificity for the amino acid sequence Asp-Glu-Val-Asp (DEVD), cleaving after Asp, and therefore caspase activity can be measured by monitoring cleavage of the substrate DEVD-AMC (Asp-Glu-Val-Asp-7-amino-4-[…]).
RKO cells were treated for 4, 8, and 12 h with PNG 4 (8) at 0.5 μM and PNG 6 (10) at 1 μM. Taxol, a known apoptotic inducer at 1 μM, was used as a positive control, and negative control cells were treated with vehicle (0.5% DMSO). Caspase-3 activity rose steadily as expected from 4-12 h in cells treated with PNG 4 (8), PNG 6 (10), and Taxol but remained constant in the untreated control cells.

HCT 116 (p53 wt) = experiment: MTS cytotoxicity, HCT 116 (p53 wt); assay type: cell-based; conditions: Homo sapiens, 48 h
From the text: as §1, §2

ubiquitin isopeptidases = experiment: In vivo isopeptidase activity after treatment of RKO cells, Ub-PEST; assay type: cell-based, human
Method: Isopeptidase Assay. It was hypothesized that the punaglandins would inhibit ubiquitin-isopeptidase activity of the proteasome pathway as does the prostaglandin, Δ^12-PGJ2 (1), but with greater potency because of the chlorinated C-10. To validate this theory, cellular isopeptidase enzymatic activity was measured in vitro after treatment with individual punaglandins, PNG 2 (6), PNG 3 (7), and Z-PNG 4 (9) and in vivo after individual treatment with PNG 4 (8) and PNG 6 (10). This activity was determined utilizing the simple isopeptidase substrate, ubiquitin-PEST (Ub-PEST), a full/length ubiquitin (Ub) molecule fused with an 18-amino acid C-terminal peptide extension that most isopeptidases use as a substrate. The polypeptide extension contains regions rich in Pro (P), Glu (E), Ser (S), and Thr (T) residues called PEST motifs that are responsible for rapid degradation of these and other unstable proteins. Ub isopeptidases specifically cleave this peptide extension, yielding free, full-length Ub. Both the fused Ub-PEST (10.5 kDa) and the cleaved, free Ub (8.5 kDa) can be observed via immunochemical detection.
In vivo Isopeptidase Activity. To investigate whether punaglandins can inhibit isopeptidase activity in vivo, isopeptidase activity was analyzed after punaglandin treatment of RKO cells. PNG 4 (8) and PNG 6 (10) were selected for in vivo investigation because they differ only in enone functionality, where (8) is a dienone and (10) an enone. RKO cells were incubated with 1 μM, 4 μM, or 7 μM of PNG 4 (8) and PNG 6 (10). […] As a positive control, cells were treated with a known isopeptidase inhibitor, shikoccin (SK). After 6 h drug treatment, cells were lysed and protein concentration adjusted to 0.3 mg/mL per sample. Each sample was subsequently incubated with 50 μg/mL of Ub-PEST. The reaction was terminated after 20 min and the respective amounts of Ub-PEST (10 kDa) and free Ub product (8.5 kDa) were determined by SDS-PAGE fractionation.

HCT 116 (p53^−/−) = experiment: MTS cytotoxicity, HCT 116 (p53−/−); assay type: cell-based; conditions: Homo sapiens, log of EC50 in μM, 48 h, read-out: Log EC50 +/− Standard Error of Log EC50, HCT 116 (p53−/−) (converted)
From the text: as §1, §2

RKO-E6 = experiment: MTS cytotoxicity, RKO-E6 cells; assay type: cell-based; conditions: Homo sapiens, RKOE6, log of EC50 in μM, 48 h, read-out: Log EC50 +/− Standard Error of Log EC50, RKO-E6 (converted)
Method: as §3

CCCCC/C=C\C[C@@]1(O)C=C(Cl)C(=O)/C1=C/[C@H](OC(C)=O)[C@H](CCCC(=O)OC)OC(C)=O [PNG 4]
EC50 (HCT 116 (p21 wt)): 0.339 µM | EC50 (RKO; read-out: EC50 in RKO cell lines, punaglandins): 0.31 µM | EC50 (RKO; log of EC50 in μM, read-out: Log EC50 +/− Standard Error of Log EC50, RKO (converted)): 0.309 µM | accumulation of p53 in RKO and RKO-E6 cells (p53): showed enhanced accumulation of p53 | EC50 (HCT 116 (p21^−/−)): 0.282 µM | Caspase-3 activity from 4-12 h (caspase-3): rose steadily | EC50 (HCT 116 (p53 wt); average over the three compounds, read-out: average EC50 of PNG 3, PNG 4 and PNG 6, cytotoxicity in HCT 116 cell lines): ~0.35 µM | EC50 (HCT 116 (p53 wt); log of EC50 in μM, read-out: Log EC50 +/− Standard Error of Log EC50, HCT 116 (p53 wt) (converted)): 0.331 µM | Ub-Pest degradation, % of the control (densitometry) (ubiquitin isopeptidases; 7 μM, 6 h): 67% | concentration of noticeable inhibition of Ub-PEST degradation (ubiquitin isopeptidases; 6 h treatment): 7 µM | EC50 (HCT 116 (p53^−/−)): 0.355 µM | EC50 (RKO-E6): 0.372 µM

Reference: US20060106099A1, “Novel inhibitors of ubiquitin isopeptidases” (priority 2002, published 2006)
